According to patent US10179761B2, “Compounds, pharmaceutical composition and their use in treating neurodegenerative diseases” (UNIVERSITE DE LILLE 2 DROIT ET SANTE, priority 2014, dated 2019):
Entries after “also recorded” stand apart in the source; their conditions may differ.

What was measured:
σ2 receptors = σ2 receptors (Homo sapiens (Human), UniProt Q5BJF2); test: σ2 binding assay, Jurkat cell membranes, [3H]-DTG in presence of (+)-pentazocine; conditions: hydrochloride salts; mean of 2 or 3 independent experiments; Ki from IC50 (Cheng-Prusoff); read-out: Sigma 2 Ki
Protocol: The σ binding assays were performed according to Ganapathy et al. (Ganapathy, M. E.; Prasad, P. D.; Huang, W.; Seth, P.; Leibach, F. H.; Ganapathy, V. Molecular and ligand-binding characterization of the sigma-receptor in the Jurkat human T lymphocyte cell line. J. Pharmacol. Exp. Ther. 1999, 289, 251-260). […] The σ2 binding assay was performed by incubating Jurkat cell membranes ([…] protein per tube) with [^3H]-DTG (25 nM) in presence of (+)-pentazocine (1 μM) to saturate σ1 receptors, and a range of concentrations of tested compounds, at room temperature for 1 hour in 5 mM Tris/HCl buffer (pH=7.4). The final assay volume was 0.5 mL. Binding was terminated by rapid filtration through Wathman GF/B filters, which were then washed with 5×1 mL ice-cold NaCl solution and allowed to dry before bound radioactivity was measured using liquid scintillation counting. Nonspecific binding was determined, in both assays, under similar conditions, but in presence of 10 μM unlabeled haloperidol. Inhibition constants (Ki) were calculated from the IC50 values according to the method of Cheng and Prusoff (Cheng, Y.; Prusoff, W. H. Relationship between the inhibition constant (Ki) and the concentration of inhibitor which causes 50 percent inhibition (IC50) of an enzymatic reaction. Biochem Pharmacol. 1973, 22 (23), 3099-108): […]

Male Swiss mice = test: Dizocilpine-induced learning deficits: step-through passive avoidance test; format: in vivo
Protocol: The activity of compound 3.1.10 was evaluated on the prevention of the dizocilpine-induced learning deficits measured using two behavioral tests. The present experiment tested if its anti-amnesic activity could be blocked by pretreatment with the reference sigma-1 receptor antagonist NE-100.
• Sixty (60) mice were used. Behavioral testing started one week after the arrival of the animals in the AMYLGEN animal facility. • 5 treatment groups were designed and used as follows:
• Vehicle 1 was physiological saline for dizocilpine, DMSO 2% in water for compound 3.1.10 • Animals were used at day 1 in the Y-maze test and at days 2 and 3 in the passive avoidance test, with training at day 2 and retention at day 3. • Test compounds, compound 3.1.10 and/or NE-100 were administered 10 min before dizocilpine (at 0.15 mg/kg i.p.) or vehicle. • Dizocilpine or vehicle 1 was administered 20 min before the Y-maze test session on day 1. • Dizocilpine or vehicle 1 was administered 20 min before the passive avoidance training session on day 2. Drugs were not injected before the retention session on day 3. • The whole experiment program was performed in a single serie experiment. • Treatments were randomized. 2.1.2. Animals
Male Swiss mice, 6 weeks old and weighing 30-35 g, from JANVIER (Saint Berthevin, France), were housed in groups with access to food and water ad libitum, except during experiments. […]
The apparatus is a two-compartments (15×20×15 cm high) box with one illuminated with white polyvinylchloride walls and the other darkened with black polyvinylchloride walls and a grid floor. […] The step-through latency (the latency spent to enter the dark compartment) and the number of vocalizations was recorded. […] The step-through latency was recorded up to 300 s. When the mouse entered the dark compartment or 300 s has elapsed (they were therefore manually placed in it), the escape latency (latency to exit from the dark compartment) was recorded up to 300 s.
They were therefore analyzed using a Kruskal-Wallis non-parametric ANOVA (H value), followed by a Dunn's multiple comparison test.

SJL/J mice = test: EAE model, preventive treatment; format: in vivo; conditions: single i.p. injection on day 0, 0.5 or 1 mg/kg; FIG. 3
From the text: Animals. SJL/J mice were purchased from Janvier (Le Genest-St-Isle, France) and bred under conventional barrier protection at the Pasteur Institute (Lille, France). All experiment protocols and procedures were in compliance with the European Communities Council Directives of 24 Nov. 1986 (86/609/EEC) and were approved by the local ethical committee (CEEA 102009R). Efforts were made to minimize the number of animals used and their suffering. Animals that reached severe hind limb paresis (clinical grade 3) were isolated, and hydration and food access were facilitated.
EAE induction and treatment. The method of EAE induction was similar to previously published methods (Lee-Chang et al., Immunol Lett. 2011 Mar. 30; 135(1-2):108-17). […]
Body weight and clinical signs of EAE were monitored daily. The severity of clinical symptoms was scored based on a standard neurological scoring system for EAE, as follows: grade 0, no disease; grade 1, moderate tail hypotonia and/or slight clumsy gait; grade 2, tail atony and/or clumsy gait; grade 3, severe hind limb paresis; grade 4, paraplegia; grade 5, tetraplegia. […]

Chain of σ2 receptors (Q5BJF2 whole entry): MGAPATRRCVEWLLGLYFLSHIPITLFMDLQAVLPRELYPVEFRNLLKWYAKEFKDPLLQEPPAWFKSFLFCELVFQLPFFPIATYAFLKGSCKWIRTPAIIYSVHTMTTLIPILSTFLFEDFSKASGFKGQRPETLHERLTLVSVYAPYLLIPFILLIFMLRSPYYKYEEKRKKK

Structure (SMILES): CN(CCCNC(=O)c1ccc(Cl)cc1)Cc1ccccc1 [Compound 3.1.10, N-[3-(benzylmethylamino)propyl]-4-chlorobenzamide]
- Ki (σ2 receptors): 0.19 µM
- dizocilpine-induced learning deficits, passive avoidance test (Male Swiss mice; 0.5 mg/kg i.p., 10 min before dizocilpine 0.15 mg/kg i.p.): significantly attenuated
- beneficial effect of compound 3.1.10 with NE-100, passive avoidance test (Male Swiss mice; 3.1.10 0.5 mg/kg + NE-100 3 mg/kg + dizocilpine 0.15 mg/kg i.p.): prevented by treatment with the sigma-1 antagonist NE-100
- EAE clinical course, preventive treatment (SJL/J mice): Amelioration of EAE; also recorded: delaying the onset of EAE
